Results on 40 compounds are retold here after patent US8501713B2, “Drug combinations for the treatment of duchenne muscular dystrophy” (Summit Corporation PLC, priority 2007, dated 2013).

The test system of one test is Utrophin A promoter linked to a luciferase reporter gene. The test is described as follows: Luciferase reporter assay (murine H2K cells). The settings on record: Mus musculus, H2K mdx. It is filed as cell-based. The method in brief:
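Compound at 10 μM final was applied for 48 hrs to plated H2K mdx myoblasts (33° C, 10% CO2, interferon-containing medium) bearing a luciferase gene under the utrophin A promoter. Luminescence from lysed cells served as read-out.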
(In general: Reporter assays use an easily measured gene product as a stand-in for the process of interest.)
Turning to `Nc1ccc2sc(-c3ccccc3)nc2c1` [Example 251, 2-phenylbenzo[d]thiazol-5-amine], the activity at 10 µM is 301 to 400%.

Still in this test, the particulars now being: Mus musculus, H2K mdx, luciferase level relative to control; H2K/mdx/Utro A reporter cells; compound 10 μM final concentration; read-out: Activity.
Turning to `CCS(=O)(=O)c1ccc2oc(-c3sccc3C)nc2c1` [Example 436, 5-(ethylsulfonyl)-2-(3-methylthiophen-2-yl)benzo[d]oxazole], the activity at 10 µM fell in the range of 201 to 300%. Still for that read-out and setting: the figure for `Nc1ccc2oc(-c3cnc4ccccc4c3)nc2c1` [Example 403, 2-(quinolin-3-yl)benzo[d]oxazol-5-amine] is 301 to 400%; for `CC(=O)Nc1ccc(-c2ccc3oc(-c4ccc(Cl)cc4)nc3c2)cc1` [Example 252, N-(4-(2-(4-chlorophenyl)benzo[d]oxazol-5-yl)phenyl)acetamide] it is 301 to 400%; for `O=C(Nc1ccc2oc(-c3ccc(Cl)cc3)nc2c1)c1ccc(F)cc1` [Example 96, N-(2-(4-chlorophenyl)benzo[d]oxazol-5-yl)-4-fluorobenzamide] it is less than 200%. The same measure, in the same setting: the figure for `CC(C)C(=O)Nc1ccc2oc(-c3cccnc3)nc2c1` [Example 56, N-(2-(pyridin-3-yl)benzo[d]oxazol-5-yl)isobutyramide] is 201 to 300%; for `O=C(C=Cc1ccccc1)Nc1ccc2oc(-c3ccccc3)nc2c1` [Example 34, N-(2-phenylbenzo[d]oxazol-5-yl)cinnamamide] it is less than 200%; for `COc1ccc(C(=O)Nc2ccc3oc(-c4cccnc4)nc3c2)cc1` [Example 42, 4-methoxy-N-(2-(pyridin-3-yl)benzo[d]oxazol-5-yl)benzamide] it is less than 200%. The same measure, in the same setting: in the case of `Cc1ccc2nc(-c3ccc(Cl)cc3)oc2c1` [Example 457, 2-(4-Chlorophenyl)-6-methylbenzo[d]oxazole] it was more than 401%; in that of `CN1CCN(c2ccc(-c3nc4cc(N)ccc4o3)cc2)CC1` [Example 151, 2-(4-(4-methylpiperazin-1-yl)phenyl)benzo[d]oxazol-5-amine], 201 to 300%; in that of `Nc1ccc2oc(-c3ccc(OC(F)(F)F)cc3)nc2c1` [Example 350, 2-(4-(trifluoromethoxy)phenyl)benzo[d]oxazol-5-amine], 201 to 300%.

On to `O=C(Nc1ccc2oc(-c3cccnc3)nc2c1)c1ccc(F)cc1` [Example 48, 4-fluoro-N-(2-(pyridin-3-yl)benzo[d]oxazol-5-yl)benzamide], for which the activity at 10 µM is less than 200%. As to `O=C(Nc1ccc2oc(-c3cccnc3)nc2c1)c1ccc(-c2ccccc2)cc1` [Example 49, N-(2-(pyridin-3-yl)benzo[d]oxazol-5-yl)biphenyl-4-carboxamide], the activity at 10 µM is less than 200%. On the same count and under the same terms, in the case of `CC(C)C(=O)Nc1ccc2[nH]c(-c3ccc(Cl)cc3)nc2c1` [Example 195, N-(2-(4-chlorophenyl)-1H-benzo[d]imidazol-5-yl)isobutyramide] it was 201 to 300%; in that of `CCC(=O)N(C)c1ccc2oc(-c3ccc(Cl)cc3)nc2c1` [Example 219, N-(2-(4-chlorophenyl)benzo[d]oxazol-5-yl)-N-methylpropionamide], 301 to 400%. Still for that read-out and setting: in the case of `O=C(Nc1ccccc1)Nc1ccc2oc(-c3ccccc3)nc2c1` [Example 240, 1-phenyl-3-(2-phenylbenzo[d]oxazol-5-yl)urea] it was 301 to 400%; in that of `O=S(=O)(O)c1ccc2oc(-c3ccc(Cl)cc3)nc2c1` [Example 312, 2-(4-chlorophenyl)benzo[d]oxazole-5-sulfonic acid], less than 200%. Still for that read-out and setting: in the case of `O=C(CCc1ccccc1)Nc1ccc2oc(-c3ccccc3)nc2c1` [Example 7, 3-phenyl-N-(2-phenylbenzo[d]oxazol-5-yl)propanamide] it was less than 200%; in that of `Nc1ccc2sc(-c3ccc(Cl)c(Cl)c3)nc2c1` [Example 284, 2-(3,4-dichlorophenyl)benzo[d]thiazol-5-amine], more than 401%. For `O=C(Nc1ccc2oc(-c3ccc(Cl)c(Cl)c3)nc2c1)C1CC1` [Example 351, N-(2-(3,4-dichlorophenyl)benzo[d]oxazol-5-yl)cyclopropanecarboxamide], the activity at 10 µM is more than 401%.

On to `c1ccc(-c2nc3c(ccc4ccccc43)o2)cc1` [Example 86, 2-phenylnaphtho[1,2-d]oxazole], for which the activity at 10 µM lay within 301 to 400%. Same read-out and setting: in the case of `Cc1ccc(-c2nc3ncccc3o2)cc1` [Example 158, 2-p-tolyloxazolo[4,5-b]pyridine] it was less than 200%; in that of `CCS(=O)(=O)c1ccc2oc(-c3ccc(C)o3)nc2c1` [Example 441, 5-(ethylsulfonyl)-2-(5-methylfuran-2-yl)benzo[d]oxazole], 301 to 400%. The same measure, in the same setting: in the case of `CC(C)N(C)C(=O)c1ccc2oc(-c3ccc(Cl)cc3)nc2c1` [Example 278, 2-(4-chlorophenyl)-N-isopropyl-N-methylbenzo[d]oxazole-5-carboxamide] it was 301 to 400%.

For `COc1ccccc1C(=O)Nc1ccc2oc(-c3ccccc3)nc2c1` [Example 26, 2-methoxy-N-(2-phenylbenzo[d]oxazol-5-yl)benzamide], the activity at 10 µM was less than 200%.

Still in this test, the particulars now being: luciferase reporter assay in murine H2K cells; classified relative to control.
Take `Cc1ccc2[nH]c(-c3sc4nc(C)ccc4c3N)nc2c1` [Example 632]: the Activity entry was “++++ (Above 401% relative to control)”. As for `Cc1ccc2sc(NC(=O)NC(=O)c3c(Cl)cccc3Cl)nc2c1` [Example 462], the Activity entry is “+ (Up to 200% relative to control)”.

As for `Cc1ccc2oc(-c3ccc(Cl)c(N)c3)nc2c1` [Example 636], the Activity entry was “+++ (Between 301% and 400% relative to control)”.

Regarding `Cc1ccc2[nH]c(-c3ccc([N+](=O)[O-])cc3)nc2c1` [Example 605], the Activity entry was “+++ (Between 301% and 400% relative to control)”. Consider `O=C(Nc1ccc(-c2nc3ccccc3[nH]2)cc1)C1CCCO1` (stereo not shown) [Example 587], for which the Activity entry is “+++ (Between 301% and 400% relative to control)”. The same measure, in the same setting: in the case of `CCC(=O)Nc1ccc2oc(-c3cccc(C)c3)nc2c1` [Example 668] it was “++ (Between 201% and 300% relative to control)”; in that of `CCOCC(=O)Nc1ccc(-c2nc3ccc(C)cc3s2)cc1` [Example 657], “+++ (Between 301% and 400% relative to control)”; in that of `Cc1cc(C)cc(-c2nc3cc(N)ccc3o2)c1` [Example 482], “+ (Up to 200% relative to control)”. In the case of `COc1ccc(-c2nc3cc([N+](=O)[O-])ccc3o2)cc1OC` [Example 537], the Activity result is “+ (Up to 200% relative to control)”.

Consider `Cn1c(COc2ccccc2)nc2ccccc21` [Example 474], for which the Activity result was “+ (Up to 200% relative to control)”. Still for that read-out and setting: in the case of `Cc1ccc(NC(=O)Nc2nc3ccccc3s2)cc1` [Example 637] it was “+++ (Between 301% and 400% relative to control)”; in that of `CCOc1ccc(NCc2nc3ccccc3n2C)cc1` [Example 676], “++ (Between 201% and 300% relative to control)”; in that of `Nc1c(C(=O)Nc2ccccc2F)sc2nc3c(cc12)CCC3` [Example 673], “++ (Between 201% and 300% relative to control)”.

For the compound `COc1ccc(-c2nc3cc([N+](=O)[O-])ccc3[nH]2)cc1` [Example 586], the Activity result was “++ (Between 201% and 300% relative to control)”. The same measure, in the same setting: in the case of `COc1ccc(-c2nc3cc(N)ccc3o2)cc1OC` [Example 515] it was “++ (Between 201% and 300% relative to control)”.
